Data reported in the supplement of paper PMC10733146.

Key:
Experiment in all cases: viability relative to DMSO control (fraction); higher = less drug effect (more viable cells)
Conditions in all cases: 48 h
8-Azaguanin = compound: Nc1nc2n[nH]nc2c(=O)[nH]1 [8-Azaguanin]
Method in brief: (§1)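 Viability was quantified by CellTiter-Glo luminescence and related to the median of 16 inner DMSO wells. Before that, primary mononuclear tumour cells, fresh or cryopreserved and Ficoll-isolated from blood or bone marrow or prepared from processed lymph node, were plated at 4 × 10^4 cells per well in 384-well plates containing pre-plated compounds at five concentrations, one well each. Plates were incubated in RPMI-1640 with penicillin/streptomycin, L-glutamine and human serum at 37 °C and 5% CO2 for 48 h.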

Carfilzomib = compound: CC(C)C[C@H](NC(=O)[C@H](CCc1ccccc1)NC(=O)CN1CCOCC1)C(=O)N[C@@H](Cc1ccccc1)C(=O)N[C@@H](CC(C)C)C(=O)[C@@]1(C)CO1 [Carfilzomib]
Method in brief: as §1

Quizartinib = compound: CC(C)(C)c1cc(NC(=O)Nc2ccc(-c3cn4c(n3)sc3cc(OCCN5CCOCC5)ccc34)cc2)no1 [Quizartinib]
Method in brief: as §1

Vincristine = compound: CC[C@]1(O)C[C@H]2CN(CCc3c([nH]c4ccccc34)[C@@](C(=O)OC)(c3cc4c(cc3OC)N(C=O)[C@H]3[C@@](O)(C(=O)OC)[C@H](OC(C)=O)[C@]5(CC)C=CCN6CC[C@]43[C@@H]65)C2)C1 [Vincristine]
Method in brief: as §1

Pentostatin = compound: OC[C@H]1O[C@@H](n2cnc3c2N=CNC[C@H]3O)C[C@@H]1O [Pentostatin]
Method in brief: as §1

Obatoclax mesylate = compound: COC1=CC(c2cc3ccccc3[nH]2)=N/C1=C\c1[nH]c(C)cc1C [Obatoclax mesylate]
Method in brief: as §1

EPZ-5676 = compound: CC(C)N(C[C@H]1O[C@@H](n2cnc3c(N)ncnc32)[C@H](O)[C@@H]1O)[C@H]1C[C@@H](CCc2nc3cc(C(C)(C)C)ccc3[nH]2)C1 [EPZ-5676]
Method in brief: as §1

Cladribine = compound: Nc1nc(Cl)nc2c1ncn2[C@H]1C[C@H](O)[C@@H](CO)O1 [Cladribine]
Method in brief: as §1

Tozasertib = compound: Cc1cc(Nc2cc(N3CCN(C)CC3)nc(Sc3ccc(NC(=O)C4CC4)cc3)n2)n[nH]1 [Tozasertib]
Method in brief: as §1

BI6727 = compound: CC[C@@H]1C(=O)N(C)c2cnc(Nc3ccc(C(=O)N[C@H]4CC[C@H](N5CCN(CC6CC6)CC5)CC4)cc3OC)nc2N1C(C)C [BI6727]
Method in brief: as §1

TMP269 = compound: O=C(NCC1(c2nc(-c3ccccc3)cs2)CCOCC1)c1cccc(-c2noc(C(F)(F)F)n2)c1 [TMP269]
Method in brief: as §1

ONO-4059 = compound: CC#CC(=O)N1CC[C@@H](n2c(=O)n(-c3ccc(Oc4ccccc4)cc3)c3c(N)ncnc32)C1 [ONO-4059]
Method in brief: as §1

AG-221 (Enasidinib) = compound: CC(C)(O)CNc1nc(Nc2ccnc(C(F)(F)F)c2)nc(-c2cccc(C(F)(F)F)n2)n1 [AG-221 (Enasidinib)]
Method in brief: as §1

MLN-120B = compound: COc1c(Cl)cc2c([nH]c3cnccc32)c1NC(=O)c1cccnc1C [MLN-120B]
Method in brief: as §1

primary AML patient cells (S060)
viability (8-Azaguanin; 0.032 µM): 0.971 | viability (8-Azaguanin; 0.16 µM): 1.05 | viability (8-Azaguanin; 0.8 µM): 0.896 | viability (8-Azaguanin; 4 µM): 0.736 | viability (8-Azaguanin; 20 µM): 0.557 | viability (Carfilzomib; 0.00016 µM): 1.03 | viability (Carfilzomib; 0.0008 µM): 1 | viability (Carfilzomib; 0.004 µM): 0.672 | viability (Carfilzomib; 0.02 µM): 0.0981 | viability (Carfilzomib; 0.1 µM): 0.0286 | viability (Quizartinib; 0.016 µM): 1.1 | viability (Quizartinib; 0.08 µM): 1.14 | viability (Quizartinib; 0.4 µM): 1.15 | viability (Quizartinib; 2 µM): 1.09 | viability (Quizartinib; 10 µM): 0.998 | viability (Vincristine; 0.016 µM): 1.01 | viability (Vincristine; 0.08 µM): 0.971 | viability (Vincristine; 0.4 µM): 0.839 | viability (Vincristine; 2 µM): 0.82 | viability (Vincristine; 10 µM): 0.922 | viability (Pentostatin; 0.03 µM): 0.965 | viability (Pentostatin; 0.15 µM): 0.979 | viability (Pentostatin; 0.75 µM): 1 | viability (Pentostatin; 3.75 µM): 1.02 | viability (Pentostatin; 18.76 µM): 0.921 | viability (Obatoclax mesylate; 0.024 µM): 1.04 | viability (Obatoclax mesylate; 0.12 µM): 0.957 | viability (Obatoclax mesylate; 0.6 µM): 0.864 | viability (Obatoclax mesylate; 3 µM): 0.507 | viability (Obatoclax mesylate; 15 µM): 0.139 | viability (EPZ-5676; 0.0032 µM): 0.943 | viability (EPZ-5676; 0.016 µM): 1.05 | viability (EPZ-5676; 0.08 µM): 0.885 | viability (EPZ-5676; 0.4 µM): 0.936 | viability (EPZ-5676; 2 µM): 1.04 | viability (Cladribine; 0.024 µM): 1.02 | viability (Cladribine; 0.12 µM): 0.711 | viability (Cladribine; 0.6 µM): 0.249 | viability (Cladribine; 3 µM): 0.0776 | viability (Cladribine; 15 µM): 0.0416 | viability (Tozasertib; 0.024 µM): 0.98 | viability (Tozasertib; 0.12 µM): 0.92 | viability (Tozasertib; 0.6 µM): 0.959 | viability (Tozasertib; 3 µM): 1.02 | viability (Tozasertib; 15 µM): 0.689 | viability (BI6727; 0.024 µM): 0.976 | viability (BI6727; 0.12 µM): 1.02 | viability (BI6727; 0.6 µM): 0.904 | viability (BI6727; 3 µM): 0.618 | viability (BI6727; 15 µM): 0.0927 | viability (TMP269; 0.024 µM): 1.06 | viability (TMP269; 0.12 µM): 1.12 | viability (TMP269; 0.6 µM): 1.14 | viability (TMP269; 3 µM): 1.04 | viability (TMP269; 15 µM): 1.04 | viability (ONO-4059; 0.0016 µM): 1.03 | viability (ONO-4059; 0.008 µM): 1.06 | viability (ONO-4059; 0.04 µM): 1.03 | viability (ONO-4059; 0.2 µM): 1.09 | viability (ONO-4059; 1 µM): 1.1 | viability (AG-221 (Enasidinib); 0.024 µM): 0.928 | viability (AG-221 (Enasidinib); 0.12 µM): 0.871 | viability (AG-221 (Enasidinib); 0.6 µM): 1.01 | viability (AG-221 (Enasidinib); 3 µM): 0.91 | viability (AG-221 (Enasidinib); 15 µM): 0.847 | viability (MLN-120B; 0.024 µM): 1.05 | viability (MLN-120B; 0.12 µM): 1.05 | viability (MLN-120B; 0.6 µM): 1.07 | viability (MLN-120B; 3 µM): 1.03 | viability (MLN-120B; 15 µM): 0.969

primary T-PLL patient cells (S008)
viability (8-Azaguanin; 0.032 µM): 0.898 | viability (8-Azaguanin; 0.16 µM): 0.991 | viability (8-Azaguanin; 0.8 µM): 0.91 | viability (8-Azaguanin; 4 µM): 0.858 | viability (8-Azaguanin; 20 µM): 0.712 | viability (Carfilzomib; 0.00016 µM): 0.997 | viability (Carfilzomib; 0.0008 µM): 0.434 | viability (Carfilzomib; 0.004 µM): 0.0161 | viability (Carfilzomib; 0.02 µM): 0.0168 | viability (Carfilzomib; 0.1 µM): 0.0205 | viability (Quizartinib; 0.016 µM): 0.99 | viability (Quizartinib; 0.08 µM): 0.953 | viability (Quizartinib; 0.4 µM): 0.986 | viability (Quizartinib; 2 µM): 1.03 | viability (Quizartinib; 10 µM): 1.02 | viability (Vincristine; 0.016 µM): 0.66 | viability (Vincristine; 0.08 µM): 0.34 | viability (Vincristine; 0.4 µM): 0.269 | viability (Vincristine; 2 µM): 0.22 | viability (Vincristine; 10 µM): 0.164 | viability (Pentostatin; 0.03 µM): 1.04 | viability (Pentostatin; 0.15 µM): 0.989 | viability (Pentostatin; 0.75 µM): 1 | viability (Pentostatin; 3.75 µM): 0.892 | viability (Pentostatin; 18.76 µM): 0.917 | viability (Obatoclax mesylate; 0.024 µM): 1.02 | viability (Obatoclax mesylate; 0.12 µM): 0.899 | viability (Obatoclax mesylate; 0.6 µM): 0.718 | viability (Obatoclax mesylate; 3 µM): 0.563 | viability (Obatoclax mesylate; 15 µM): 0.175 | viability (EPZ-5676; 0.0032 µM): 0.902 | viability (EPZ-5676; 0.016 µM): 0.963 | viability (EPZ-5676; 0.08 µM): 0.917 | viability (EPZ-5676; 0.4 µM): 0.95 | viability (EPZ-5676; 2 µM): 1 | viability (Cladribine; 0.024 µM): 0.925 | viability (Cladribine; 0.12 µM): 0.774 | viability (Cladribine; 0.6 µM): 0.489 | viability (Cladribine; 3 µM): 0.407 | viability (Cladribine; 15 µM): 0.363 | viability (Tozasertib; 0.024 µM): 0.977 | viability (Tozasertib; 0.12 µM): 0.957 | viability (Tozasertib; 0.6 µM): 0.974 | viability (Tozasertib; 3 µM): 0.933 | viability (Tozasertib; 15 µM): 0.948 | viability (BI6727; 0.024 µM): 0.979 | viability (BI6727; 0.12 µM): 0.921 | viability (BI6727; 0.6 µM): 0.934 | viability (BI6727; 3 µM): 0.899 | viability (BI6727; 15 µM): 0.746 | viability (TMP269; 0.024 µM): 1.04 | viability (TMP269; 0.12 µM): 1.01 | viability (TMP269; 0.6 µM): 1.01 | viability (TMP269; 3 µM): 1.01 | viability (TMP269; 15 µM): 0.947 | viability (ONO-4059; 0.0016 µM): 1.02 | viability (ONO-4059; 0.008 µM): 1 | viability (ONO-4059; 0.04 µM): 1.03 | viability (ONO-4059; 0.2 µM): 1.03 | viability (ONO-4059; 1 µM): 1.06 | viability (AG-221 (Enasidinib); 0.024 µM): 0.915 | viability (AG-221 (Enasidinib); 0.12 µM): 0.887 | viability (AG-221 (Enasidinib); 0.6 µM): 1.04 | viability (AG-221 (Enasidinib); 3 µM): 1.01 | viability (AG-221 (Enasidinib); 15 µM): 0.899 | viability (MLN-120B; 0.024 µM): 1.03 | viability (MLN-120B; 0.12 µM): 1.01 | viability (MLN-120B; 0.6 µM): 1.03 | viability (MLN-120B; 3 µM): 1 | viability (MLN-120B; 15 µM): 0.963
